For test [1], the system named is mice. Description: Tail flick assay of drug combinations (morphine or acetaminophen + GA and/or analogs). As to conditions: acetaminophen:BC1-45-1 ratios 500:1 to 1000:1; acetate. In general terms: Thermal pain tests record how soon the animal reacts.
The test system of test [2] is mice. Description: Acetaminophen hepatotoxicity (ALT, TBARS, survival). As to conditions: for elevated ALT levels after acetaminophen overdose: delayed administration post APAP administration; for hepatotoxicity of acetaminophen (ALT levels): pretreatment (30 min) before acetaminophen.
In the next test the test system is Hela Cells. Description: Cellular ER stress model (tunicamycin, WST-8 cell viability). The settings on record: for AntiERStress (% Cell Survival): HeLa cells, tunicamycin 48 hours, WST-8; for viability at 2.5 µM: Homo sapiens, HeLa, 48 h. In general terms: Tetrazolium assays rely on reduction of a dye to a coloured formazan, in cell work by metabolically active cells.

The subject of a further test is CAD5 cells. Type of test: cell-based.
A further test deals with C57BL/6J mice. Description: MOG-induced experimental autoimmune encephalomyelitis (EAE). The test is classed as in vivo. As to conditions: daily treatment starting on PID 10, preliminary results, FIG. 2.

Here are results for eight molecules from patent US12006294B2, “Therapeutic compounds” (REGENTS OF THE UNIVERSITY OF MINNESOTA, priority 2017, dated 2024).

Entries after “also recorded” stand apart in the source; their conditions may differ. Read-outs that look alike come from different tables or passages of the source.

For the molecule `N=C(N)N/N=C/c1c(Cl)cccc1Cl` [BC1-45-1, guanabenz, acetate], the “analgesic synergy with acetaminophen in tail flick assay” value with mice [1] was “exhibited synergy in the analgesic activity; also recorded: provided synergy at all the time points tested”. Besides, the survival rate with mice [2] (all treatment groups (pretreatment and delayed 0.5-8 h post acetaminophen)) was determined as 100%. In the test with mice [2] (acetate), the “elevated ALT levels after acetaminophen overdose” value (shortened to “elevated ALT levels”) is “reduces elevated levels of ALT; also recorded: limited the hepatotoxicity of acetaminophen” and the “hepatotoxicity of acetaminophen (ALT levels)” value (shortened to “hepatotoxicity”) was “can limit the hepatotoxicity of acetaminophen; also recorded: limited the hepatotoxicity of acetaminophen”.

`N=C(N)N/N=C\c1c(Cl)cccc1Cl` [BC1-55-1, (Z)-2-(2,6-dichlorobenzylidene)hydrazinecarboximidamide acetate]: the “AntiERStress (% Cell Survival)” value in the test on Hela Cells was 64.33 % Cell Survival. Besides, the viability at 2.5 µM in the test on Hela Cells (read-out: % Cell Survival Cmpd(2.5 μM) + Tuni, Hela cells, compound 2.5 μM + tunicamycin, WST-8 viability 48 hours after tunicamycin treatment) came out at 22.1%. Moreover, the viability at 2.5 µM in the test on Hela Cells (read-out: Compounds ERS (vs Tn), ERS activity vs Tuni = % cell survival (compound)/% cell survival (tunicamycin), compound 2.5 μM) was found to be 96%. Also, in the test on CAD5 cells, the 1/Elispot is given as 0.59, the “AntiPrion (Number of Cells × 10^4)” value is reported as 3 × 10^4, the “EliSpot (Spots/10000 Cells)” value turned out to be 2200 Spots/10000 Cells and the “Elispot (vs PC)” value was 1.69. The “lipid peroxidation products (TBARS assay)” value in the test on mice [2] (acetaminophen overdose, FIG. 7, acetate) is “can reduce the lipid peroxidation products; also recorded: limited the elevated lipid peroxidation byproducts”. This molecule also returned a survival rate in the test on mice [2] (delayed administration post APAP) of 100%. For the same molecule, in the test on mice [2] (acetate), the “elevated ALT levels” value is “reduces elevated levels of ALT” and the “hepatotoxicity” value is “can limit the hepatotoxicity of acetaminophen; also recorded: limited the hepatotoxicity of acetaminophen”. Also, the survival rate in the test with mice [2] (pretreated animals, acetaminophen overdose) is 100%.

For the molecule `N=C(N)N/N=C/c1c(I)cccc1I` [BC2-55-2, (E)-2-(2,6-diiodobenzylidene)hydrazinecarboximidamide], the “AntiERStress (% Cell Survival)” value with Hela Cells turned out to be 70.69 % Cell Survival. In the test with CAD5 cells, the 1/Elispot is 1.00, the “AntiPrion (Number of Cells × 10^4)” value is 4 × 10^4, the “EliSpot (Spots/10000 Cells)” value amounted to 1300 Spots/10000 Cells and the “Elispot (vs PC)” value stood at 1.00.

For `N=C(N)N/N=C/c1c(O)cccc1Cl` [BC2-59-1, (E)-2-(2-chloro-6-hydroxybenzylidene)hydrazinecarboximidamide acetate], in the test on Hela Cells, the “AntiERStress (% Cell Survival)” value worked out at 104.6895 % Cell Survival. Also, in the test on CAD5 cells, the 1/Elispot was 0.93, the “AntiPrion (Number of Cells × 10^4)” value is reported as 15 × 10^4, the “EliSpot (Spots/10000 Cells)” value is on record as 1400 Spots/10000 Cells and the “Elispot (vs PC)” value was determined as 1.08.

On to `N=C(N)N/N=C/c1c(N)cccc1Cl` [BC2-61-1, (E)-2-(2-amino-6-chlorobenzylidene)hydrazinecarboximidamide], for which the “AntiERStress (% Cell Survival)” value with Hela Cells is reported as 86.56 % Cell Survival. Besides, in the test with CAD5 cells, the 1/Elispot came out at 0.93, the “AntiPrion (Number of Cells × 10^4)” value was 10 × 10^4, the “EliSpot (Spots/10000 Cells)” value was determined as 1400 Spots/10000 Cells and the “Elispot (vs PC)” value was 1.08.

For `N=C(N)N/N=C/c1ccccc1N` [BC2-61-2, (E)-2-(2-aminobenzylidene)hydrazinecarboximidamide], the “AntiERStress (% Cell Survival)” value in the test with Hela Cells was found to be 58.21 % Cell Survival. Besides, in the test with CAD5 cells, the 1/Elispot is recorded as 1.63, the “AntiPrion (Number of Cells × 10^4)” value is reported as 50 × 10^4, the “EliSpot (Spots/10000 Cells)” value is 800 Spots/10000 Cells and the “Elispot (vs PC)” value was found to be 0.62.

With `CC(=O)N[C@@H](CS)C(=O)O` [N-acetyl cysteine], the “elevated ALT levels” value in the test with mice [2] is on record as “less effective in limiting elevated ALT levels”. In the test with mice [2], the “hepatotoxicity” value is on record as “less effective in limiting the hepatotoxicity of acetaminophen”. In addition, the “animals died before completion of the study” value in the test with mice [2] (pretreatment, acetaminophen overdose) is on record as “Twenty-five”; with mice [2] (treated four hours after acetaminophen overdose), “Eighty-eight”.

For the molecule `NC(N)=N/N=C/c1ccccc1Cl` [Sephin 1, reference compound], the “ERS (vs Tn)” value with Hela Cells (% cell survival (compound)/% cell survival (tunicamycin)) turned out to be 1.80. For the same molecule, in the test on Hela Cells, the “AntiERStress (% Cell Survival)” value was determined as 87.19 % Cell Survival. In addition, in the test on CAD5 cells, the 1/Elispot amounted to 1.63, the “AntiPrion (Number of Cells × 10^4)” value is given as 32 × 10^4, the “EliSpot (Spots/10000 Cells)” value was 800 Spots/10000 Cells and the “Elispot (vs PC)” value stood at 0.62. Besides, in the test on C57BL/6J mice, the “EAE disease severity (clinical severity score)” value was “markedly attended the EAE disease severity”. In addition, the “EAE disease severity (clinical severity score)” value in the test on C57BL/6J mice (listed as sephin 1) is reported as “attends the EAE disease severity”.
